These results are taken from ChEMBL document CHEMBL1152766, “Bioactive constituents from the leaves of Clinacanthus nutans Lindau” (Bioorg Med Chem, 2009).

Data set [1] has as its system Human alphaherpesvirus 1. Nature of the data set: Antiviral activity against 1000 PFU/ml infectious dose of HSV1 strain F infected in african green monkey Vero cells assessed as inhibition of virus in post-viral entry step at 6.21 uM after 72 hrs by plaque reduction assay. It is filed as functional. Also on record: scale not given: the % may be the effect or the level left.

The nature of data set [2]: Cytotoxicity against african green monkey Vero cells after 72 hrs. Format: cell-based. The conditions noted are these: chlorocebus sabaeus, read-out: MNCC.
The test system of data set [3] is Human alphaherpesvirus 1. Nature of the data set: Antiviral activity against 1000 PFU/ml infectious dose of HSV1 strain F infected in african green monkey Vero cells after 72 hrs by plaque reduction assay. It is filed as functional, organism-based. As to conditions: Human alphaherpesvirus 1, strain F. (In a plaque reduction assay, fewer plaques than in the control indicate reduced infectivity or spread.)

Data set [4] has as its system Human alphaherpesvirus 1. Nature of the data set: Antiviral activity against 1000 PFU/ml infectious dose of HSV1 strain F infected in african green monkey Vero cells assessed as inhibition of virus in pre-viral entry step at 6.21 uM after 72 hrs by plaque reduction assay. It is filed as functional. Also on record: scale not given: the % may be the effect or the level left.

Data set [5] concerns Human alphaherpesvirus 1. Nature of the data set: Antiviral activity against 1000 PFU/ml infectious dose of HSV1 strain F infected in african green monkey Vero cells assessed as inhibition of virus in post-viral entry step at 5.89 uM after 72 hrs by plaque reduction assay. It is filed as functional. Also on record: scale not given: the % may be the effect or the level left.

For data set [6], the system named is Human alphaherpesvirus 1. Nature of the data set: Antiviral activity against 1000 PFU/ml infectious dose of HSV1 strain F infected in african green monkey Vero cells assessed as inhibition of virus in pre-viral entry step at 5.89 uM after 72 hrs by plaque reduction assay. Format: functional. Also on record: scale not given: the % may be the effect or the level left.

Usually IC50 stands for the concentration at which inhibition is half-maximal. On to `C=Cc1c(C)c2cc3nc(c4c5[nH]c(cc6nc(cc1[nH]2)C(C)=C6CC)c(C)c5C(=O)[C@]4(O)C(=O)OC)[C@@H](CCC(=O)O/C=C(\C)CCCC(C)CCCC(C)CCCC(C)C)[C@@H]3C` (some centres not stated), for which the Activity in data set [1] worked out at 30%; in data set [4], 100%. In addition, the MNTC at 72 h in data set [2] stood at 6.21 µM. The molecule further came in with an IC50 in data set [3] of 3.11 nM.
Consider `C=Cc1c(C)c2cc3nc(c4c5[nH]c(cc6nc(cc1[nH]2)C(C=O)=C6CC)c(C)c5C(=O)[C@@]4(O)C(=O)OC)[C@@H](CCC(=O)O/C=C(\C)CCCC(C)CCCC(C)CCCC(C)C)[C@@H]3C` (some centres not stated) [13(2)-HYDROXY-(13(2)-R)-PHAEOPHYTIN B], for which the Activity in data set [5] is given as 30%; in data set [6] it was 100%. In addition, the MNTC at 72 h in data set [2] was determined as 5.89 µM. For the same molecule, in data set [3], the IC50 was found to be 1.96 nM.
For `C=Cc1c(C)c2cc3nc(c4c5[nH]c(cc6nc(cc1[nH]2)C(C)=C6CC)c(C)c5C(=O)[C@@]4(O)C(=O)OC)[C@@H](CCC(=O)O/C=C(\C)CCCC(C)CCCC(C)CCCC(C)C)[C@@H]3C` (some centres not stated), the values for the Activity in data set [1] and in data set [4] were 30% and 100%, respectively. The MNTC at 72 h in data set [2] was found to be 6.21 µM. Also, the IC50 in data set [3] was found to be 3.11 nM.
